Source: ChEMBL document CHEMBL5352409, “Design, synthesis, and pharmacological evaluation of 2-(1-(1,3,4-thiadiazol-2-yl)piperidin-4-yl)ethan-1-ol analogs as novel glutaminase 1 inhibitors” (Eur J Med Chem, 2022)
pIC50: −log10 of the molar value. Calls of active or inactive are those of the source. The calls are words filed in the database; no cut-off is given here.

Key:
HCT-116 [1] = test: Inhibition of colony formation in human HCT-116 cells at 2 to 8 uM; type: functional, cell-based; details: dose 2-8 µM
[2] = Cmax in rat at 3 mg/kg, po; type: ADME, organism-based; parameters: dose 3 mg/kg, route po; details: in vivo
A549 [3] = test: Induction of cell cycle arrest in human A549 cells assessed as accumulation of cells at G0/G1 phase at 50 nM incubated for 48 hrs by propidium iodide staining based flow cytometry analysis (Rvb=61.61%); type: functional
[4] = Terminal half life in rat at 3 mg/kg, po; type: ADME, organism-based; details: in vivo, read-out: beta t1/2 (converted)
A549 [5] = test: Antiproliferative activity against human A549 cells assessed as reduction in cell viability; type: functional, cell-based
[6] = Toxicity in human A549 cells xenografted in mouse assessed as body weight loss at 100 mg/kg administered via oral gavage for 28 days relative to control; type: organism-based; details: in vivo, 672 h, time 28 day
[7] = Cmax in rat at 3 mg/kg, iv; type: ADME, organism-based; parameters: dose 3 mg/kg, route iv; details: in vivo
HCT-116 [8] = test: Antitumor activity against human HCT-116 cells xenografted in mouse model assessed as tumor growth inhibition at 100 mg/kg once daily via oral gavage administered for 28 days relative to control; type: functional; parameters: scale not given: the % may be the effect or the level left; details: time 28 day
[9] = biological target: T1, Glutaminase kidney isoform, mitochondrial (Homo sapiens, UniProt O94925); test: Inhibition of GLS1 (unknown origin)
T1 sequence (O94925 whole entry): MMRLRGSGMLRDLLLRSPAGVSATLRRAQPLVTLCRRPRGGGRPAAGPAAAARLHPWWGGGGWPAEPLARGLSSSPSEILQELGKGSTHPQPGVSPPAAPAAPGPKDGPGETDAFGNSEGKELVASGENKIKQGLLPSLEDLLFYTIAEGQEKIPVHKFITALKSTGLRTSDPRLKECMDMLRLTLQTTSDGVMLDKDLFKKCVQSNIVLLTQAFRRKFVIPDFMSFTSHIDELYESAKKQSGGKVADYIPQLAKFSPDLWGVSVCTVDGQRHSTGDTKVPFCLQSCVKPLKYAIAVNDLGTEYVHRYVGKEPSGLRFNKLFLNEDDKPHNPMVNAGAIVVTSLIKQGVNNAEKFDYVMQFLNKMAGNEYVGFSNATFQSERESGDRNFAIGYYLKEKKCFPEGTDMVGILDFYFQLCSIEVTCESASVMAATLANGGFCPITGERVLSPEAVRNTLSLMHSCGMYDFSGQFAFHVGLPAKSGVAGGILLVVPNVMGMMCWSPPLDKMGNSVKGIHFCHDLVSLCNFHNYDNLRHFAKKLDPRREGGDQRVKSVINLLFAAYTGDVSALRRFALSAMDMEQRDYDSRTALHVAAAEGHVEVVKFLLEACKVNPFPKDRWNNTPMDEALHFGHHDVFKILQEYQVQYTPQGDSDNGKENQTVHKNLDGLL

A549 [10] = test: Induction of apoptosis in human A549 cells assessed as late apoptotic cells at 1 uM incubated for 48 hrs by annexin V-FITC and propidium iodide based flow cytometry analysis (Rvb =9.696%); type: functional
A549 [11] = test: Induction of cell cycle arrest in human A549 cells assessed as accumulation of cells at S phase at 200 nM incubated for 48 hrs by propidium iodide staining based flow cytometry analysis (Rvb=14.51%); type: functional
A549 [12] = test: Induction of cell cycle arrest in human A549 cells assessed as accumulation of cells at G0/G1 phase at 400 nM incubated for 48 hrs by propidium iodide staining based flow cytometry analysis (Rvb=61.61%); type: functional
A549 [13] = test: Induction of apoptosis in human A549 cells assessed as early apoptotic cells at 10 uM incubated for 48 hrs by annexin V-FITC and propidium iodide based flow cytometry analysis (Rvb =12.289%); type: functional
[14] = AUC(0 to t) in rat at 3 mg/kg, po; type: ADME, organism-based; parameters: dose 3 mg/kg, route po; details: in vivo
A549 [15] = test: Antitumor activity against human A549 cells xenografted in mouse model assessed as tumor growth inhibition at 100 mg/kg once daily via oral gavage administered for 28 days relative to control; type: functional; parameters: scale not given: the % may be the effect or the level left; details: time 28 day
A549 [16] = test: Induction of cell cycle arrest in human A549 cells assessed as accumulation of cells at G0/G1 phase at 100 nM incubated for 48 hrs by propidium iodide staining based flow cytometry analysis (Rvb=61.61%); type: functional
A549 [17] = test: Inhibition of colony formation in human A549 cells at 2 to 8 uM; type: functional, cell-based; details: dose 2-8 µM
A549 [18] = test: Inhibition of glutaminase in human A549 cells assessed as ratio of glutamine to glutamate level (Rv b= 0.45 +/- 0.011); type: cell-based
A549 [19] = test: Induction of apoptosis in human A549 cells assessed as late apoptotic cells at 5 uM incubated for 48 hrs by annexin V-FITC and propidium iodide based flow cytometry analysis (Rvb =9.696%); type: functional
A549 [20] = test: Induction of cell cycle arrest in human A549 cells assessed as accumulation of cells at G2/M phase at 800 nM incubated for 48 hrs by propidium iodide staining based flow cytometry analysis (Rvb=23.88%); type: functional
A549 [21] = test: Induction of cell cycle arrest in human A549 cells assessed as accumulation at G1 phase incubated for 48 hrs by propidium iodide staining based flow cytometry analysis; type: functional; details: dose 50-800 nM
A549 [22] = test: Induction of cell cycle arrest in human A549 cells assessed as accumulation of cells at S phase at 800 nM incubated for 48 hrs by propidium iodide staining based flow cytometry analysis (Rvb=14.51%); type: functional
A549 [23] = test: Induction of cell cycle arrest in human A549 cells assessed as accumulation of cells at G2/M phase at 50 nM incubated for 48 hrs by propidium iodide staining based flow cytometry analysis (Rvb=23.88%); type: functional
A549 [24] = test: Induction of cell cycle arrest in human A549 cells assessed as accumulation of cells at G2/M phase at 400 nM incubated for 48 hrs by propidium iodide staining based flow cytometry analysis (Rvb=23.88%); type: functional
A549 [25] = test: Induction of intracellular ROS production in human A549 cells by DCFH-DA staining based fluorescence microscopic analysis; type: functional, cell-based; details: dose 1-10 µM
A549 [26] = test: Induction of apoptosis in human A549 cells assessed as early apoptotic cells at 5 uM incubated for 48 hrs by annexin V-FITC and propidium iodide based flow cytometry analysis (Rvb =12.289%); type: functional
[27] = human, microsomes
Description: Metabolic stability in human liver microsome assessed as intrinsic clearance

A549 [28] = test: Induction of cell cycle arrest in human A549 cells assessed as accumulation of cells at G0/G1 phase at 200 nM incubated for 48 hrs by propidium iodide staining based flow cytometry analysis (Rvb=61.61%); type: functional

Cmax [2]: 41.3 ng/mL
half-life [4]: 19.8 h
pIC50 (A549 [5]): 6.24
Cmax [7]: 699 ng/mL
pIC50 [9]: 7.17
AUCt [14]: 251.6 ng·h/mL
CLH [27]: 15.6 g/mL/min
SMILES: CCCCCCN1CCC(CNC(=O)c2cccc(COCCC3CCN(c4nnc(NC(=O)Cc5ccccc5)s4)CC3)c2)CC1
inhibition (HCT-116 [1]): Active
Activity (A549 [3]): 62.73%
Activity [6]: Non-Toxic
Activity (HCT-116 [8]): 42%
Activity (A549 [10]): 7.018%
Activity (A549 [11]): 13.34%
Activity (A549 [12]): 67.53%
Activity (A549 [13]): 16.025%
Activity (A549 [15]): 40.9%
Activity (A549 [16]): 64.94%
inhibition (A549 [17]): Active
Ratio (A549 [18]): 1.32
Activity (A549 [19]): 16.368%
Activity (A549 [20]): 19.67%
Activity (A549 [21]): Dose-Dependent Effect
Activity (A549 [22]): 11.77%
Activity (A549 [23]): 24.1%
Activity (A549 [24]): 18.77%
Activity (A549 [25]): Dose-Dependent Effect
Activity (A549 [26]): 20.673%
Activity (A549 [28]): 66.93%
